Like-named read-outs stand apart in the source and are kept apart here.
Experiments:
adrenal cortex [1] = experiment: Adrenal damage; conditions: for Adrenal damage: feeding; for Pathological findings in adrenals: without hydrocarbons
adrenal cortex [2] = conditions: cited from earlier work; for Protection of adrenal against 7,12-DMBA: single feeding
adrenal cortex [3] = experiment: Induced protection of adrenal against 7,12-DMBA; type: in vivo, rat; conditions: for Protection of adrenal after repeated doses: 15 mg fed daily for 5 days before 7,12-DMBA
[4] = system: menadione reductase (EC 1.6.5.2); experiment: Induction of menadione reductase in tissues; type: in vivo, rat; conditions: for Induction of menadione reductase in liver: single feeding, 24 hours
[5] = system: deoxyribonucleic acid of adrenal; type: in vivo, rat; conditions: Table VII; ethionine 25 mg i.p. at -24 hrs alone
adrenal cortex [6] = conditions: far larger doses than of 7,12-DMBA required; cited from earlier work
[7] = polycyclic aromatic hydrocarbons

With Cc1cccc2ccc3cc4ccccc4c(C)c3c12 [1,12-DMBA] the Adrenal damage (adrenal cortex [1]; 30 mg) was “adrenal damage did not occur”.

In the case of Nc1ccc2c(c1)Cc1ccccc1-2 [2-aminofluorene], the “Protection of adrenal against 7,12-DMBA” value (adrenal cortex [2]; aromatic amines) is given as “protection of this sort was afforded”.

For CC(C)(C(=O)c1cccnc1)c1cccnc1 [2-methyl-I, 2-b/s(3-pyr-idyl)-1-propanone], the “Prevention of adrenal damage from 7,12-DMBA” value (adrenal cortex [2]; preliminary treatment of rats) is listed as “prevented adrenal damage”.

In the case of Nc1ccc2ccccc2c1 [2-naphthylamine], the “Protection of adrenal against 7,12-DMBA” value (adrenal cortex [2]; aromatic amines) is listed as “protection of this sort was afforded”.

With Cc1ccc2cc3c(ccc4cc(C)ccc43)cc2c1 [3,9-Dimethylbenz[alanthracene] the Adrenal damage (adrenal cortex [1]; 30 mg) was “adrenal damage did not occur”.

With Cc1c2ccccc2cc2c1cc(F)c1ccccc12 [5-Fluoro-7-methyl BaA] the Adrenals with hemorrhage (adrenal cortex [3]; Table III, dose 1 mg fed once day -1, 7,12-DMBA 5 mg i.v. day 0, adrenals day 3) was 0/6.

In the case of Cc1cccc2cc3c(cc12)c(C)cc1ccccc13 [6,8-Dimethylbenz[a]anthracene], the Adrenal damage (adrenal cortex [1]; 30 mg) is reported as “adrenal damage did not occur”.

In the case of Nc1cc2c3ccccc3ccc2c2ccccc12 [6-Aminochrysene], the “Protection of adrenal against 7,12-DMBA” value (adrenal cortex [2]; aromatic amines) is listed as “protection of this sort was afforded”.

For c1ccc2cc3c(ccc4ccccc43)cc2c1 [Benz[a]anthracene, benz[a]anthracene], the “Protection of adrenal against 7,12-DMBA” value (adrenal cortex [2]; [7]) is listed as “protection of this sort was afforded”.

In the case of c1ccc2c(c1)cc1ccc3cccc4ccc2c1c34 [Benzo[a]pyrene, benzo[a]pyrene], the “Induction of menadione reductase in liver” value [4] is listed as “induced synthesis of the enzyme” and the “Protection of adrenal against 7,12-DMBA” value (adrenal cortex [2]; [7]) is listed as “protection of this sort was afforded”.

With c1ccc2c(c1)ccc1c3ccccc3ccc21 [Chrysene] the “Induction of menadione reductase in liver” value [4] was “induced a considerable in- crease”.

For c1cc2ccc3cccc4ccc(c1)c2c34 [Pyrene], the “Induction of menadione reductase in liver” value [4] was “failed to induce this enzyme”.

For c1ccc2cc3ccccc3cc2c1 [anthracene], the “Protection of adrenal against 7,12-DMBA” value (adrenal cortex [2]; [7]) is given as “protection of this sort was afforded”.

For CCC1(CC)C(=O)NC(=O)NC1=O [barbital], the “Protection of adrenal after repeated doses” value (adrenal cortex [3]) was “did not induce pro- tection”.

For CC(C)(O)C(Cl)(Cl)Cl [chloretone, 1,1,1-tricbloro-2-methyl-2-propanol], the “Rats with protection of adrenals” value (adrenal cortex [3]; 15 mg fed daily for 5 days, group of 20 rats) was 7.

With CCC1(C2=CCCCC2)C(=O)NC(=O)NC1=O [cyclobarbital, 5-(1-cycloohexanyl)-5-ethylbarbituric acid] the “Protection of adrenal after repeated doses” value (adrenal cortex [3]) was “did not induce pro- tection”.

For CCSCC[C@H](N)C(=O)O [ethionine], the Adrenals at necropsy (adrenal cortex [3]; 3 doses of ethionine 25 mg at +1 minute, +4 hours, +8 hours after 3-MC 10 mg, 7,12-DMBA 5 mg) was “eliminated the protective effect of 3-MC”, the Adrenals at necropsy (adrenal cortex [3]; ethionine 25 mg 4 or 8 hours after 3-MC 2 mg, 7,12-DMBA 5 mg 24 hours later) was “yel- low adrenals” and the “Effect on 7,12-DMBA-produced adrenal apoplexy” value (adrenal cortex [3]; ethionine 25 mg or 50 mg 0.5 hours before 7,12-DMBA 5 mg, no protector) was “adrenal apoplexy was found at necropsy in all of the rats”. The Adrenals at necropsy (adrenal cortex [3]; single doses of ethionine 25 mg or 50 mg, 1 minute to 1 hour after 3-MC 10 mg, 7,12-DMBA 5 mg) was “yellow adrenals”, the “Pathological findings in adrenals” value (adrenal cortex [1]; injection of 25 to 75 mg) was “No pathological findings” and the “Elevation of menadione reductase in liver at 12 hours vs rats without ethionine” value ([4]; 3-MC 2.5 mg i.v. plus ethionine 25 mg i.p.) was “significantly lower”. The “Time elevation of menadione reductase in liver first detected” value ([4]; 3-MC 2.5 mg i.v. plus ethionine 25 mg i.p. just after, Fig. 4) was 8 h, the “Tritium content of adrenal” value [5] was 0.122 ~clgm and the “Tritium content of adrenal, per cent of controls” value [5] was 92 per cent.

For CSCC[C@H](N)C(=O)O [methionine], the “Influence on aromatic protection against 7,12-DMBA” value (adrenal cortex [3]; methionine 50 mg as sole amino acid 1 hour before or 1 hour after 3-MC 2 mg) was “no influence on aromatic protection” and the “Pathological findings in adrenals” value (adrenal cortex [1]; injection of 50 mg) was “No pathological findings”.

In the case of Clc1ccc(C(c2ccccc2Cl)C(Cl)Cl)cc1 (stereo not drawn) [o,p'-DDD, 2,2-bis(2-chlorophenyl,4-chlorophenyl)-l, 1-dichloroethane], the “Adrenal necrosis (character)” value (adrenal cortex [6]) is listed as “focal and patchy”.

For c1ccc2c(c1)ccc1ccccc12 [phenanthrene], the “Protection of adrenal against 7,12-DMBA” value (adrenal cortex [2]; [7]) is given as “protection of this sort was afforded”.

For CC12OOC(C)(c3ccccc31)c1c2ccc2ccccc12 (stereo not drawn) [transannular peroxide of 7,12-DMBA], the Adrenal protection (adrenal cortex [3]; feeding 10 mg) was “complete adre- nal protection”, the “Animals with protection of adrenals” value (adrenal cortex [3]; single feeding of 2 mg, group of 5 rats) was 3 and the Adrenal damage (adrenal cortex [1]; 50 mg) was “did not cause injury to the adrenals”.

— PMC2137757 (The Journal of Experimental Medicine, 1964)
